Molecular target: T1, B1R receptor of the rat (rB1R) (Rattus norvegicus, UniProt P97583)
T1 construct: expressed in transfected cells; host or cells: CHO K1 cells
T1 sequence (P97583 1-337): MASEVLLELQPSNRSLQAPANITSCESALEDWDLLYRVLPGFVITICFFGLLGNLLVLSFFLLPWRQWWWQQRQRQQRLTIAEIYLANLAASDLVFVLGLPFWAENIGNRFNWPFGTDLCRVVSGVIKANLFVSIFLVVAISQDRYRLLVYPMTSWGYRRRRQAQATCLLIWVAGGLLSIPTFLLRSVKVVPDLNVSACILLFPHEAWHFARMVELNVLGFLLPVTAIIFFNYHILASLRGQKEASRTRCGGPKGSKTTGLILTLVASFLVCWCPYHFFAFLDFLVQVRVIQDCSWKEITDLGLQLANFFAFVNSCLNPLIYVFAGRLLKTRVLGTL
Test: Functional investigation on the bradykinin 1 receptor (B1R), FLIPR Ca2+ assay, rB1R cells
Type: cell-based
Settings: 10 μM test substance; CHO K1 cells with rat B1R; agonist Des-Arg9 bradykinin; % of maximum achievable inhibition
Description: The indication in % activation is based on the Ca^2+ signal after addition of Lys-Des-[…] bradykinin (0.5 nM) or Des-[…] bradykinin (100 nM). Antagonists lead to a suppression of the Ca^2+ influx following administration of the agonist. The % inhibition in comparison with the maximum achievable inhibition is indicated. […] According to this assay, the Ca^2+ inflow through the channel is quantified with the aid of a Ca^2+-sensitive dye (Fluo-4 type, Molecular Probes Europe BV, Leiden, Netherlands) in a fluorescent imaging plate reader (FLIPR, Molecular Devices, Sunnyvale, USA). […] For functional investigations these cells are plated-out onto black 96-well plates with a clear base (BD Biosciences, Heidelberg, Germany or Greiner, Frickenhausen, Germany) in a density of 20,000-35,000 cells/well. Overnight the cells are incubated at 37° C. and 5% CO2 in culture medium (hB1R cells: Ham's Nutrient Mixture F12, Gibco Invitrogen GmbH, Karlsruhe, Germany or DMEM, Sigma-Aldrich, Taufkirchen, Germany; rB1R cells: D-MEM/F12, Gibco Invitrogen, Karlsruhe, Germany) with 10 vol. % FBS (foetal bovine serum, Gibco Invitrogen GmbH, Karlsruhe, Germany or PAN Biotech GmbH, Aidenbach, Germany). On the following day the cells are loaded with 2.13 μM Fluo-4 (Molecular Probes Europe BV, Leiden, Netherlands) in HBSS buffer (Hank's buffered saline solution, Gibco Invitrogen GmbH, Karlsruhe, Germany) with 2.5 mM probenecid (Sigma-Aldrich, Taufkirchen, Germany) and 10 mM HEPES (Sigma-Aldrich, Taufkirchen, Germany) for 60 min at 37° C. […] Sigma-Aldrich, Taufkirchen, Germany), 5.6 mM glucose and 0.05% gelatine (Merck KGaA, Darmstadt, Germany) is added. After a further incubation of 20 minutes at room temperature, the plates are inserted into the FLIPR for Ca^2+ measurement. Alternatively they are washed with buffer A (15 mM HEPES, 80 mM NaCl, 5 mM KCl, 1.2 mM CaCl2, 0.7 mM MgSO4, 2 g/l glucose, 2.5 mM probenecid) and loaded with buffer A with added 2.5 μM Fluo-4 and 0.025% Pluronic F127 (Sigma-Aldrich, Taufkirchen, Germany). The cells are then washed twice with buffer A and incubated for 30 minutes with buffer A, which additionally contains 0.05% BSA and 0.05% gelatine, at room temperature and then used for Ca^2+ measurement in the FLIPR. The Ca^2+-dependent fluorescence is measured here before and after addition of substances (λex=488 nm, λem=540 nm). The quantification is performed by measuring the highest fluorescence intensity (FC, fluorescence counts) over time. The FLIPR protocol comprises two additions of substance. […] Lys-Des-[…] bradykinin>=50 nM; rB1R: […] Antagonists lead to a suppression of the Ca^2+ inflow. The % inhibition in comparison with the maximum achievable inhibition is calculated. The substances are added in varying concentrations in order to determine the IC50 value. Double or triple determinations (n=2 or n=3) are performed and these are repeated in at least one further independent experiment (N>=2).

B1R antagonism, rat [10 μM] % inhibition [%] | SMILES
99 | COc1cc(C)c(S(=O)(=O)Nc2ccc3ccn(CC(=O)N4CCN(CC5CCN(C)CC5)CC4)c3c2)c(C)c1 [G_CC-4, 4-Methoxy-2,6-dimethyl-N-[1-[2-[4-[(1-methyl-piperdin-4-yl)-methyl]-piperazin-1-yl]-2-oxo-ethyl]-1H-indol-6-yl]-benzenesulfonic acid amide]
100 | COc1cc(C)c(S(=O)(=O)Nc2cccc3ccn(CC(=O)N4CCN(CC5CCN(C)CC5)CC4)c23)c(C)c1 [G_CC-7, 4-Methoxy-2,6-dimethyl-N-[1-[2-[4-[(1-methyl-piperdin-4-yl)-methyl]-piperazin-1-yl]-2-oxo-ethyl]-1H-indol-7-yl]-benzenesulfonic acid amide]

Same assay, conditions: 10 μM test substance; CHO K1 cells with rat B1R; agonist Des-Arg9 bradykinin; % of maximum achievable inhibition; 10 µM

B1R antagonism, rat [10 μM] % inhibition [%] | SMILES
90 | COc1cc(C)c(S(=O)(=O)Nc2cccc3ccn(CC(=O)N4CCC(Oc5ccncc5)CC4)c23)c(C)c1 [Compound G-03, 4-Methoxy-2,6-dimethyl-N-[1-[2-oxo-2-(4-pyridin-4-yloxy-piperidin-1-yl)-ethyl]-1H-indol-7-yl]-benzenesulfonic acid amide]

Same assay, conditions: CHO-K1, 10 μM test substance; CHO K1 cells with rat B1R; agonist Des-Arg9 bradykinin; % of maximum achievable inhibition; read-out: B1R antagonism, rat [10 μM] % inhibition

SMILES | inhibition at 10 µM [%]
COc1cc(C)c(S(=O)(=O)Nc2ccc3ccn(CC(=O)N4CCN(C5CCN(C)CC5)CC4)c3c2)c(C)c1 [G_CC-1, 4-Methoxy-2,6-dimethyl-N-[1-[2-[4-(1-methyl-piperidin-4-yl)-piperazin-1-yl]-2-oxo-ethyl]-1H-indol-6-yl]-benzenesulfonic acid amide] | 62
COc1cc(C)c(S(=O)(=O)Nc2ccc3ccn(CC(=O)N4CCN(c5ncccn5)CC4)c3c2)c(C)c1 [G_CC-3, 4-Methoxy-2,6-dimethyl-N-[1-[2-oxo-2-(4-pyrimidin-2-yl-piperazin-1-yl)-ethyl]-1H-indol-6-yl]-benzenesulfonic acid amide] | 82
COc1cc(C)c(S(=O)(=O)Nc2ccc3ccn(CC(=O)NCC4CCN(c5ccncc5)CC4)c3c2)c(C)c1 [G_CC-9, 2-[6-[[(4-Methoxy-2,6-dimethyl-phenyl)sulfonyl]amino]-1H-indol-1-yl]-N-[(1-pyridin-4-yl-piperidin-4-yl)-methyl]-acetamide] | 65
COc1cc(C)c(S(=O)(=O)Nc2ccc3ccn(CC(=O)N4CCC5(CCN(Cc6ccccc6)C5)C4)c3c2)c(C)c1 (centres unmarked) [G_CC-10, N-[1-[2-(3-Benzyl-3,7-diazaspiro[4.4]nonan-7-yl)-2-oxo-ethyl]-1H-indol-6-yl]-4-methoxy-2,6-dimethyl-benzenesulfonic acid amide] | 69
COc1cc(C)c(S(=O)(=O)Nc2ccc3ccn(CC(=O)N(C)CCCN4CCC(c5ccccc5)(N(C)C)CC4)c3c2)c(C)c1 [G_CC-11, N-[3-(4-Dimethylamino-4-phenyl-piperidin-1-yl)-propyl]-2-[6-[[(4-methoxy-2,6-dimethyl-phenyl)sulfonyl]amino]-1H-indol-1-yl]-N-methyl-acetamide] | 87
COc1cc(C)c(S(=O)(=O)Nc2cccc3ccn(CC(=O)N(C)CCCN4CCC(c5ccccc5)(N(C)C)CC4)c23)c(C)c1 [G_CC-14, N-[3-(4-Dimethylamino-4-phenyl-piperidin-1-yl)-propyl]-2-[7-[[(4-methoxy-2,6-dimethyl-phenyl)sulfonyl]amino]-1H-indol-1-yl]-N-methyl-acetamide] | 86
Cc1cc(S(=O)(=O)Nc2ccc3ccn(CC(=O)N(C)CCCN4CCC(c5ccccc5)(N(C)C)CC4)c3c2)c(C)cc1Cl [G_CC-15, 2-[6-[[(4-Chloro-2,5-dimethyl-phenyl)sulfonyl]amino]-1H-indol-1-yl]-N-[3-(4-dimethylamino-4-phenyl-piperidin-1-yl)-propyl]-N-methyl-acetamide] | 65
CN(CCCN1CCC(c2ccccc2)(N(C)C)CC1)C(=O)Cn1ccc2cccc(NS(=O)(=O)c3cccc4ccccc34)c21 [G_CC-16, N-[3-(4-Dimethylamino-4-phenyl-piperidin-1-yl)-propyl]-N-methyl-2-[7-[(naphthalen-1-ylsulfonyl)amino]-1H-indol-1-yl]-acetamide] | 67
COc1cc(C)c(S(=O)(=O)Nc2cccc3ccn(CC(=O)NC4CCC(c5ccccc5)(N5CCC5)CC4)c23)c(C)c1 (centres unmarked) [G_CC-17, N-[4-(Azetidin-1-yl)-4-phenyl-cyclohexyl]-2-[7-[[(4-methoxy-2,6-dimethyl-phenyl)sulfonyl]amino]-1H-indol-1-yl]-acetamide] | 52
COc1cc(C)c(S(=O)(=O)Nc2cccc3ccn(CC(=O)N(C)CCCN4CCC(c5cccs5)(N(C)C)CC4)c23)c(C)c1 [G_CC-18, N-[3-(4-Dimethylamino-4-thiophen-2-yl-piperidin-1-yl)-propyl]-2-[7-[[(4-methoxy-2,6-dimethyl-phenyl)sulfonyl]amino]-1H-indol-1-yl]-N-methyl-acetamide] | 87
COc1cc(C)c(S(=O)(=O)Nc2cccc3ccn(CC(=O)NCCN4CCC(c5cccs5)(N(C)C)CC4)c23)c(C)c1 [G_CC-19, N-[2-(4-Dimethylamino-4-thiophen-2-yl-piperidin-1-yl)-ethyl]-2-[7-[[(4-methoxy-2,6-dimethyl-phenyl)sulfonyl]amino]-1H-indol-1-yl]-acetamide] | 68
COc1cc(C)c(S(=O)(=O)Nc2cccc3ccn(CC(=O)N4CCC(c5cccs5)(N(C)C)CC4)c23)c(C)c1 [G_CC-20, N-[1-[2-(4-Dimethylamino-4-thiophen-2-yl-piperidin-1-yl)-2-oxo-ethyl]-1H-indol-7-yl]-4-methoxy-2,6-dimethyl-benzenesulfonic acid amide] | 86

More lines, now with the values ahead:

inhibition at 10 µM [%] | SMILES
59 | COc1cc(C)c(S(=O)(=O)Nc2cccc3ccn(CC(=O)N4CCN(c5ccc(F)cc5)CC4)c23)c(C)c1 [G_CC-5, N-[1-[2-[4-(4-fluorophenyl)-piperazin-1-yl]-2-oxo-ethyl]-1H-indol-7-yl]-4-methoxy-2,6-dimethyl-benzenesulfonic acid amide]
73 | COc1cc(C)c(S(=O)(=O)Nc2cccc3ccn(CC(=O)N4CCN(c5ncccn5)CC4)c23)c(C)c1 [G_CC-6, 4-Methoxy-2,6-dimethyl-N-[1-[2-oxo-2-(4-pyrimidin-2-yl-piperazin-1-yl)-ethyl]-1H-indol-7-yl]-benzenesulfonic acid amide]
58 | COc1cc(C)c(S(=O)(=O)Nc2cccc3ccn(CC(=O)N4CCC5(CC4)CCN(c4ccc(F)cc4)C5=O)c23)c(C)c1 [G_CC-12, N-[1-[2-[3-(4-Fluorophenyl)-4-oxo-3,8-diazaspiro[4.5]decan-8-yl]-2-oxo-ethyl]-1H-indol-7-yl]-4-methoxy-2,6-dimethyl-benzenesulfonic acid amide]
58 | COc1cc(C)c(S(=O)(=O)Nc2cccc3ccn(CC(=O)N4CCC5(CCN(Cc6ccccc6)C5)C4)c23)c(C)c1 (centres unmarked) [G_CC-13, N-[1-[2-(3-Benzyl-3,7-diazaspiro[4.4]nonan-7-yl)-2-oxo-ethyl]-1H-indol-7-yl]-4-methoxy-2,6-dimethyl-benzenesulfonic acid amide]
97 | COc1cc(C)c(S(=O)(=O)Nc2cccc3ccn(CC(=O)NCCC4CCN(c5ccncc5)CC4)c23)c(C)c1 [G_CC-21, 2-[7-[[(4-Methoxy-2,6-dimethyl-phenyl)sulfonyl]amino]-1H-indol-1-yl]-N-[2-(1-pyridin-4-yl-piperidin-4-yl)-ethyl]-acetamide]

From US8492559B2, “Substituted indole compounds” (Gruenenthal GmbH, priority 2009, dated 2013)
